The source of these data is patent US20030180927A1, “Yeast protein methyltransferase hsl7p” (priority 2003, published 2003).

The target of test [1] is T1, Hs17p (Saccharomyces cerevisiae, UniProt P38274).
T1 construct: made in house; host or cells: S. cerevisiae hsl7-delta strain SPY103 (pGALFLAGHSL7, GAL1 promoter); anti-Flag immunoprecipitate
T1 sequence (P38274 1-827): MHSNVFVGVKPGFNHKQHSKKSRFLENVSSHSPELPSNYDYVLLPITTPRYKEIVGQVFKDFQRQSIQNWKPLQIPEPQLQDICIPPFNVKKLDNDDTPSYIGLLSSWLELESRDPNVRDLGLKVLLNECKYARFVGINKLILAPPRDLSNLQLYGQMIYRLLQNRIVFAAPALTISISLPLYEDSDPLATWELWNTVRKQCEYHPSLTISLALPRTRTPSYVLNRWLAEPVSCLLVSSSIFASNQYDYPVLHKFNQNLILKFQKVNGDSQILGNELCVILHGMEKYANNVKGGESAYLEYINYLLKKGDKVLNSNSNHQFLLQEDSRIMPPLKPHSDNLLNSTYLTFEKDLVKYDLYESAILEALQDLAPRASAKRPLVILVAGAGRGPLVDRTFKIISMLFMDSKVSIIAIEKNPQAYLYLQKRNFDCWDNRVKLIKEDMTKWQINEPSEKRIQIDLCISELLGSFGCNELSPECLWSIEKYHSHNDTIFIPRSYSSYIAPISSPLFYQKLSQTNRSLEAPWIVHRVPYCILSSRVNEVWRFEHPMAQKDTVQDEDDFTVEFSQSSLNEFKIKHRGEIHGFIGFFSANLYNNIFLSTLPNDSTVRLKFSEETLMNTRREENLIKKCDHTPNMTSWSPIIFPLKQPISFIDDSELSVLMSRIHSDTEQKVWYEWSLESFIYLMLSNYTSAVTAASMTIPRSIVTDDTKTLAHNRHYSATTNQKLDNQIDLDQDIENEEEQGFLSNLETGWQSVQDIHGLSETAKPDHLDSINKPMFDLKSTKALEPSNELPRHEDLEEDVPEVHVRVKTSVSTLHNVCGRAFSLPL
Briefly: In vitro methylation of myelin basic protein by Hs17p, inhibition. Conditions: [3H]AdoMet methyl donor, 30° C., 30 minutes, FIG. 2C. It is filed as biochemical. How it is done:
(§1) In Vitro Methylation. Immunoprecipitated Flag-Hs17p was used to methylate histones and myelin basic protein with minor modifications of the method previously described. Each reaction contained 10 ig of substrate proteins (histones, MBP and cytochrome c). [^3H]AdoMet was added to a final concentration of 55 iCi/ml. The reaction contained 150 mM NaCl, 50 mM Tris.HCl (pH 8.0), 1% NP-40, 0.8 mM PMSF, 3 μg/ml antipain, 10 ig/ml benzamidine (10^4 kallikrein-inactivating units/ml) plus 1 μg/ml each of leupeptin, chymostatin and pepstatin. The 50 μl reactions were incubated at 30° C. for 30 minutes.
(§2) FIG. 2 illustrates the UV crosslinking of [^3H]AdoMet to Hs17p. […] After UV crosslinking, the 7.5% gel was dried and exposed to Biomax MR film for 15 days at −70° C. FIG. 2B show the in vitro methylation of protein substrates by Hs17p. Methylation reactions were done as described in “Experimental Procedures.” Each lane contained 10 μg at substrate protein. The position of the labeled bands coincided exactly with the location of the substrate proteins or the Coomassie blue-stained gel (not shown). The dried 15% gel was exposed to Biomax MR film for 21 days at −70° C. […] Protein sizes were calculated by the migration of broad range protein standards (BioRad).

The target in test [2] is JBP1 (Homo sapiens, UniProt O14744). Briefly: In vitro methylation of myelin basic protein by JBP1, inhibition. It is filed as biochemical. The conditions noted are these: [3H]AdoMet methyl donor, 30° C., 30 minutes, FIG. 2C. The procedure: as §1, §2
The nature of test [3]: UV crosslinking of [3H]AdoMet. It is filed as binding. The conditions noted are these: immunoprecipitated protein, FIG. 2A. The procedure: UV Crosslinking. Crosslinking of [^3H]AdoMet to Hs17p and JBP1 was performed as described.
FIG. 2 illustrates the UV crosslinking of [^3H]AdoMet to Hs17p. […] After UV crosslinking, the 7.5% gel was dried and exposed to Biomax MR film for 15 days at −70° C. FIG. 2B show the in vitro methylation of protein substrates by Hs17p. Methylation reactions were done as described in “Experimental Procedures.” Each lane contained 10 μg at substrate protein. The position of the labeled bands coincided exactly with the location of the substrate proteins or the Coomassie blue-stained gel (not shown). The dried 15% gel was exposed to Biomax MR film for 21 days at −70° C. […] Protein methylation reactions were conducted as described in “Experimental Procedures,” except that homocysteine was added to the other reaction components on ice. The reactions were then incubated at 30° C. for 30 minutes. The 15% gel was exposed to Biomax MR film for 14 days at −70° C. Protein sizes were calculated by the migration of broad range protein standards (BioRad).

In test [4] the test system is calf histones, bovine myelin basic protein and bovine cytochrome c. The test can be described thus: In vitro methylation of protein substrates. It is filed as biochemical. The conditions noted are these: substrates H2A, H4 and myelin basic protein, 10 μg, FIG. 2B. The procedure:
as §1, §2

JBP1, sequence (O14744 whole entry): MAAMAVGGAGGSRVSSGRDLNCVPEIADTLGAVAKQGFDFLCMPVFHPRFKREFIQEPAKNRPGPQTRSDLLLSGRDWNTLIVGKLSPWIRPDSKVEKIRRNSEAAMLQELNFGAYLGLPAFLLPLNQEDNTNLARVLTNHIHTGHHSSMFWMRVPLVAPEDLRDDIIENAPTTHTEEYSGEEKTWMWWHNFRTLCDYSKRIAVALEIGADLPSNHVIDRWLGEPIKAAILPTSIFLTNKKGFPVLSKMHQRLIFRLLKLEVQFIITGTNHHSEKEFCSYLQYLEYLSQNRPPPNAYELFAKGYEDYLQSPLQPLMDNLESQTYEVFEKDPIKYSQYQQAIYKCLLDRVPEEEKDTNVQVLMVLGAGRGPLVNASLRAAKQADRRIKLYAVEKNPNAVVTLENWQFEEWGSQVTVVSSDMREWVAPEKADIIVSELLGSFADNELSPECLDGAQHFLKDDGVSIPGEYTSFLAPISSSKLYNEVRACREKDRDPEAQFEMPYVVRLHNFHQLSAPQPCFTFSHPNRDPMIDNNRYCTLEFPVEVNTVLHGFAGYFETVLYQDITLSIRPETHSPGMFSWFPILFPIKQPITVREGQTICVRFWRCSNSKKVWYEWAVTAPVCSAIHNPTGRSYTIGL
JBP1, sequence (Q9BQA1 whole entry partner): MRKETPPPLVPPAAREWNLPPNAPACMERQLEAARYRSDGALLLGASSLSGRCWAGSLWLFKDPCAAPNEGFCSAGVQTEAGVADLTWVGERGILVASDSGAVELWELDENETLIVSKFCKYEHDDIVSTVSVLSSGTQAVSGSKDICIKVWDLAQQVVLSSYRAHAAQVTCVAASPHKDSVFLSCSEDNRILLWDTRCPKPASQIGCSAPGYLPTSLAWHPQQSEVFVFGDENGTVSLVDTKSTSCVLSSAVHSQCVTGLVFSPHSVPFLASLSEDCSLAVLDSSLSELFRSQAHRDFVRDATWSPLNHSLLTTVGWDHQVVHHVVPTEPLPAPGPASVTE

With `N[C@@H](CCS)C(=O)O` [homocysteine], in test [1], the “inhibition of myelin basic protein in vitro methylation by Hs17p” value is “blocks”. Besides, the “inhibition of myelin basic protein in vitro methylation by JBP1” value in test [2] is “blocks”.

B1: Hs17p: yeast protein methyltransferase, homologue of Janus kinase binding protein 1, expressed by HSL7 (protein, UniProt P38274 1-827, looked up)
Protein arginine …: T1 sequence (P38274 1-827)
modifications: FLAG tag
With B1, in test [3], the “UV crosslinking / binding of [3H]AdoMet” value is on record as “binds AdoMet”. Besides, the “in vitro methylation of substrate protein” value in test [4] is reported as “methylated”.
